# According to patent publication US20180296456A1, “Decapeptide-12 Modulation of Sirtuin Gene Expression in Epidermal Keratinocyte Progenitors” (Escape Therapeutics, Inc., priority 2017, published 2018):
# Ends that are not written are not given here.
# Assays:
# [1] = Trypan blue cell viability, 7 days, melanoblasts; type: cell-based; details: human, relative to control, read-out: melanoblast viability after 7 days
# Method: (§1) The effect of each of the decapeptides upon cell viability was also tested. In particular, cells were incubated with the decapeptide at various concentrations and then counted for viability relative to the control (untreated cells) using trypan blue. Cytotoxicity was measured according to the following formula:
# (§2) [1−(# of cells in control−# of live cells in test sample)/# of cells in control]×100 percent.
# [2] = MTT cell proliferation assay, melanoblasts; type: cell-based, human; details: human, MTT, 72 h, read-out: melanoblast proliferation rate after 72 hours
# Method: Proliferation rates for three human cell lines (epidermal progenitors, melanoblasts, and fibroblasts) were determined using a TACS® MTT Cell Proliferation Kit. Cells were seeded at 2.5×10^4/well in 96-well plates in a humidified atmosphere with 5 percent CO2 at 37 degrees Celsius. Twenty-four hours later, the decapeptides were added to the corresponding wells at varying concentrations and incubated for 72 hours. The remainder of the procedure was performed following the manufacturer's protocol.
# [3] = test system: human epidermal progenitors; assay: Trypan blue dye exclusion cytotoxicity assay, 72 h, epidermal progenitors; type: cell-based; details: human epidermal progenitors; for cell death: 72 h, trypan blue
# Method: Cellular toxicity was measured using a trypan blue dye exclusion assay. Cells were cultured in 6-well plates at a density of 4×10^5 cells/well. Each well received a different concentration of decapeptide-12 or oxyresveratrol (0, 3, 10, 30, 100, 300, and 1000 μM). Plates were incubated at 37 degrees Celsius in a humidified 5 percent CO2 chamber. After 72 h, an aliquot was taken and cells counted using a hemacytometer. Cytotoxicity was measured according to the following formula: [1−(# of cells in control−# of live cells in test sample)/# of cells in control]×100 percent.
# SIRT3 = SIRT3 transcription, semi-quantitative RT-PCR in human epidermal progenitors; type: cell-based; details: 72 h
# Method: Human neonatal epidermal progenitors (Thermo Fisher Scientific, NY) were seeded in 6-well plates at a density of 2×10^5 cells/well. Each well received 2 ml of Epilife media containing 60 μM calcium chloride (Thermo Fisher Scientific, NY). Plates were incubated in a humidified chamber at 37 degrees Celsius and 5 percent CO2. Twenty-four hours later, cells were treated with various concentrations of oxyresveratrol or decapeptide-12 dissolved in PBS containing 5 percent DMSO. Control wells received vehicle only (5 percent DMSO and PBS). Final concentration of DMSO in each well was 0.05 percent.
# After a 72 hour incubation period, cells were trypsinized and total RNA extracted, using RNeasy kit (Qiagen, Valencia, Calif.) according to the manufacturer's protocol.
# RNA concentration was determined using nanodrop (Thermo fisher scientific, NY). Two μg of total RNA were used to synthesize cDNA using oligo dT primers and TaqMan reverse transcription reagents (Thermo fisher scientific, NY). The reaction was carried out in DNA Engine Peltier Thermal Cycler (Bio-Rad, Hercules, Calif.). The annealing temperature was 25 degrees Celsius for 10 minutes, followed by first strand synthesis at 48 degrees Celsius for 1 hour, and heat inactivation at 95 degrees Celsius for 5 minutes.
# The SIRT1-7 primers (table 1) were designed using Primer3. The semi-quantitative PCR reactions were performed on a DNA Engine Peltier Thermo Cycler (Bio-Rad, Hercules, Calif.). PCR was carried under the following conditions: denaturation at 94 degrees Celsius for 2 minutes and primer extension at 54 degrees Celsius for 30 seconds in 34 cycles for SIRT 1-7 and the housekeeping gene 18S.
# Samples were run and resolved on a 1.5 percent agarose gel containing 0.5 μg/ml of ethidium bromide and imaged using the FluorChem HD2 Imaging System (Protein simple, San Jose, Calif.). Densitometry analysis was carried out using the AlphaEase FC software (Protein simple, San Jose, Calif.). Intensity ratios were calculated as the intensity value for each gene divided by the intensity value of the internal control gene 18S.
# The effect of the decapeptides P4, P4A, P4B, and P4C upon the transcription levels of sirtuins 1-7 was evaluated. Table 4 summarizes transcription levels for all four decapeptides with the corresponding genes, at tested concentrations of: 10, 30, 50, 100, and 300 (all in μM).
# [4] = Trypan blue cell viability, 7 days, epidermal progenitors; type: cell-based; details: human, relative to control, read-out: epidermal progenitor viability after 7 days
# Method: as §1, §2
# human skin = details: previously reported; cited from earlier work
# patients with dyschromia = details: topical cream containing 0.01 percent, twice daily for 8 weeks; cited from earlier work
substance,measurement,setting,value
"YRSRKYSSWY [decapeptide-12, YRSRKYSSWY]","viability at 168 h, 3 µM",[1],100%
same,"viability at 168 h, 10 µM",[1],99 ± 1%
same,"viability at 168 h, 30 µM",[1],98.3 ± 1%
same,"viability at 168 h, 50 µM",[1],98 ± 1%
same,"viability at 168 h, 100 µM",[1],97.3 ± 1%
same,"viability at 168 h, 300 µM",[1],95.2 ± 2%
same,"viability at 168 h, 500 µM",[1],94.6 ± 2%
same,"viability at 168 h, 1000 µM",[1],94 ± 2%
same,"viability at 72 h, 3 µM",[2],100%
same,"viability at 72 h, 10 µM",[2],100%
same,"viability at 72 h, 30 µM",[2],99 ± 1%
same,"viability at 72 h, 50 µM",[2],98 ± 1%
same,"viability at 72 h, 100 µM",[2],97 ± 1%
same,"viability at 72 h, 300 µM",[2],97 ± 1%
same,"viability at 72 h, 500 µM",[2],95 ± 2%
same,"viability at 72 h, 1000 µM",[2],95 ± 2%
same,cell death,[3]; 100 μM,3±1%
same,cell death,[3]; 1 mM,7±2%
same,cytotoxicity compared with oxyresveratrol,[3],reduced cytotoxicity
same,SIRT3 transcription increase relative to control,SIRT3; 3 μM,4 ± 1%
same,SIRT3 transcription increase relative to control,SIRT3; 10 μM,9.2 ± 2.8%
same,SIRT3 transcription increase relative to control,"SIRT3; 10 μM, listed as P4",9 ± 3%
same,SIRT3 transcription increase relative to control,SIRT3; 30 μM,32.2 ± 6.1%
same,SIRT3 transcription increase relative to control,"SIRT3; 30 μM, listed as P4",32 ± 6%
same,SIRT3 transcription increase relative to control,SIRT3; 50 μM,65 ± 12.1%
same,SIRT3 transcription increase relative to control,"SIRT3; 50 μM, listed as P4",65 ± 12%
same,SIRT3 transcription increase relative to control,SIRT3; 100 μM,121±13%
same,SIRT3 transcription increase relative to control,"SIRT3; 100 μM, listed as Deca",121 ± 13.2%
same,SIRT3 transcription increase relative to control,"SIRT3; 100 μM, listed as P4",121 ± 13%
same,SIRT3 transcription increase relative to control,"SIRT3; 100 μM, listed as decapeptide",121%
same,SIRT3 transcription increase relative to control,SIRT3; 300 μM,165.2 ± 12.4%
same,SIRT3 transcription increase relative to control,"SIRT3; 300 μM, listed as P4",165 ± 12%
same,SIRT3 transcription increase relative to control,SIRT3; 500 μM,177 ± 9.2%
same,SIRT3 transcription increase relative to control,SIRT3; 1000 μM,171 ± 9%
same,"viability at 168 h, 3 µM",[4],100%
same,"viability at 168 h, 10 µM",[4],99 ± 1%
same,"viability at 168 h, 30 µM",[4],98.4 ± 1%
same,"viability at 168 h, 50 µM",[4],97.8 ± 1%
same,"viability at 168 h, 100 µM",[4],97.1 ± 1%
same,"viability at 168 h, 300 µM",[4],95.6 ± 2%
same,"viability at 168 h, 500 µM",[4],94.2 ± 2%
same,"viability at 168 h, 1000 µM",[4],93.8 ± 2%
same,hypopigmenting efficacy,human skin,potent hypopigmenting efficacy
same,facial skin appearance,patients with dyschromia,overall improvement in facial skin appearance
"Ac-YRSRKYSSWY-NH2 [P4C, Acetyl-YRSRKYSSWY-amide]","viability at 168 h, 3 µM",[1],100%
same,"viability at 168 h, 10 µM",[1],99 ± 1%
same,"viability at 168 h, 30 µM",[1],98.4 ± 1%
same,"viability at 168 h, 50 µM",[1],97.9 ± 1%
same,"viability at 168 h, 100 µM",[1],97 ± 2%
same,"viability at 168 h, 300 µM",[1],96 ± 3%
same,"viability at 168 h, 500 µM",[1],95.5 ± 3%
same,"viability at 168 h, 1000 µM",[1],94.8 ± 3%
same,"viability at 72 h, 3 µM",[2],100%
same,"viability at 72 h, 10 µM",[2],100%
same,"viability at 72 h, 30 µM",[2],99 ± 1%
same,"viability at 72 h, 50 µM",[2],98 ± 1%
same,"viability at 72 h, 100 µM",[2],97 ± 2%
same,"viability at 72 h, 300 µM",[2],96 ± 3%
same,"viability at 72 h, 500 µM",[2],95 ± 2%
same,"viability at 72 h, 1000 µM",[2],95 ± 2%
same,SIRT3 transcription increase relative to control,SIRT3; 10 μM,8 ± 3%
same,SIRT3 transcription increase relative to control,SIRT3; 30 μM,6 ± 2%
same,SIRT3 transcription increase relative to control,SIRT3; 50 μM,45 ± 9%
same,SIRT3 transcription increase relative to control,SIRT3; 100 μM,82 ± 8%
same,SIRT3 transcription increase relative to control,SIRT3; 300 μM,159 ± 6%
same,"viability at 168 h, 3 µM",[4],100%
same,"viability at 168 h, 10 µM",[4],99 ± 1%
same,"viability at 168 h, 30 µM",[4],98 ± 1%
same,"viability at 168 h, 50 µM",[4],97.4 ± 1%
same,"viability at 168 h, 100 µM",[4],96.6 ± 2%
same,"viability at 168 h, 300 µM",[4],95.7 ± 3%
same,"viability at 168 h, 500 µM",[4],94.8 ± 3%
same,"viability at 168 h, 1000 µM",[4],94 ± 3%
